Test [1] addresses Mitogen-activated protein kinase kinase kinase kinase 2 (Homo sapiens) (UniProt Q12851). As to the kind of experiment: Inhibition of GCK (unknown origin) at 10 uM after 120 mins P33 radiolabeled kinase activity assay.
Test [2] has as its target Tyrosine-protein kinase HCK (Homo sapiens) (UniProt P08631). As to the kind of experiment: Inhibition of HCK (unknown origin) at 10 uM after 120 mins P33 radiolabeled kinase activity assay.
Test [3] has as its target Calcium/calmodulin-dependent protein kinase type 1 (Homo sapiens) (UniProt Q14012). Nature of the test: Inhibition of CAMK1alpha (unknown origin) at 10 uM after 120 mins P33 radiolabeled kinase activity assay.
Test [4] concerns the target CDK1/Cyclin E (Homo sapiens) (UniProt P06493+P24864). Nature of the test: Inhibition of CDK1/cyclin E (unknown origin) at 10 uM after 120 mins P33 radiolabeled kinase activity assay. The class given is protein-complex assay.
The target of test [5] is Serine/threonine-protein kinase SIK3 (Homo sapiens) (UniProt Q9Y2K2). Nature of the test: Inhibition of SIK3 (unknown origin) at 10 uM after 120 mins P33 radiolabeled kinase activity assay.
Test [6] has as its target MAP kinase-interacting serine/threonine-protein kinase 2 (Homo sapiens) (UniProt Q9HBH9). As to the kind of experiment: Inhibition of MNK2 (unknown origin) at 10 uM after 120 mins P33 radiolabeled kinase activity assay.
Test [7] addresses T1, G protein-coupled receptor kinase 3 (Homo sapiens) (UniProt P35626).
T1 sequence (whole entry): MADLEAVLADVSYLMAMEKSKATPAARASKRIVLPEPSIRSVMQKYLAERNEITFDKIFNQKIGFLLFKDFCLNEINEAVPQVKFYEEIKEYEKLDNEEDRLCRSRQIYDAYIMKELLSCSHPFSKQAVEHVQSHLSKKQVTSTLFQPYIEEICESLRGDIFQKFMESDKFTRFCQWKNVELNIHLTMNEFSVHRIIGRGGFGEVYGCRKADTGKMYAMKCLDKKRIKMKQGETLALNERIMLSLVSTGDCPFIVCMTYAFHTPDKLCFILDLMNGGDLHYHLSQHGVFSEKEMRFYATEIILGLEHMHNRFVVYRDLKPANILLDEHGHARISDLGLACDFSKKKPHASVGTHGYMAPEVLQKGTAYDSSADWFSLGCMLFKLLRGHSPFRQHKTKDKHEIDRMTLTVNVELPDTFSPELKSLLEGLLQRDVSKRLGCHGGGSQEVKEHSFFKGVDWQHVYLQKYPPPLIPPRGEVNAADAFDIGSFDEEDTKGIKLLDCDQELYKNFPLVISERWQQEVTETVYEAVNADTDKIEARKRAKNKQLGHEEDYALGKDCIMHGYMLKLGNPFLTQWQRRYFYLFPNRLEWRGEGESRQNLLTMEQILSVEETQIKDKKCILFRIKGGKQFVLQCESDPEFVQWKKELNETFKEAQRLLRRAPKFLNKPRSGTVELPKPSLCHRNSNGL
Nature of the test: Inhibition of GRK3 (unknown origin) at 10 uM after 120 mins P33 radiolabeled kinase activity assay.

In test [8] the target is T2, Serine/threonine-protein kinase TAO2 (Homo sapiens) (UniProt Q9UL54).
T2 sequence (whole entry): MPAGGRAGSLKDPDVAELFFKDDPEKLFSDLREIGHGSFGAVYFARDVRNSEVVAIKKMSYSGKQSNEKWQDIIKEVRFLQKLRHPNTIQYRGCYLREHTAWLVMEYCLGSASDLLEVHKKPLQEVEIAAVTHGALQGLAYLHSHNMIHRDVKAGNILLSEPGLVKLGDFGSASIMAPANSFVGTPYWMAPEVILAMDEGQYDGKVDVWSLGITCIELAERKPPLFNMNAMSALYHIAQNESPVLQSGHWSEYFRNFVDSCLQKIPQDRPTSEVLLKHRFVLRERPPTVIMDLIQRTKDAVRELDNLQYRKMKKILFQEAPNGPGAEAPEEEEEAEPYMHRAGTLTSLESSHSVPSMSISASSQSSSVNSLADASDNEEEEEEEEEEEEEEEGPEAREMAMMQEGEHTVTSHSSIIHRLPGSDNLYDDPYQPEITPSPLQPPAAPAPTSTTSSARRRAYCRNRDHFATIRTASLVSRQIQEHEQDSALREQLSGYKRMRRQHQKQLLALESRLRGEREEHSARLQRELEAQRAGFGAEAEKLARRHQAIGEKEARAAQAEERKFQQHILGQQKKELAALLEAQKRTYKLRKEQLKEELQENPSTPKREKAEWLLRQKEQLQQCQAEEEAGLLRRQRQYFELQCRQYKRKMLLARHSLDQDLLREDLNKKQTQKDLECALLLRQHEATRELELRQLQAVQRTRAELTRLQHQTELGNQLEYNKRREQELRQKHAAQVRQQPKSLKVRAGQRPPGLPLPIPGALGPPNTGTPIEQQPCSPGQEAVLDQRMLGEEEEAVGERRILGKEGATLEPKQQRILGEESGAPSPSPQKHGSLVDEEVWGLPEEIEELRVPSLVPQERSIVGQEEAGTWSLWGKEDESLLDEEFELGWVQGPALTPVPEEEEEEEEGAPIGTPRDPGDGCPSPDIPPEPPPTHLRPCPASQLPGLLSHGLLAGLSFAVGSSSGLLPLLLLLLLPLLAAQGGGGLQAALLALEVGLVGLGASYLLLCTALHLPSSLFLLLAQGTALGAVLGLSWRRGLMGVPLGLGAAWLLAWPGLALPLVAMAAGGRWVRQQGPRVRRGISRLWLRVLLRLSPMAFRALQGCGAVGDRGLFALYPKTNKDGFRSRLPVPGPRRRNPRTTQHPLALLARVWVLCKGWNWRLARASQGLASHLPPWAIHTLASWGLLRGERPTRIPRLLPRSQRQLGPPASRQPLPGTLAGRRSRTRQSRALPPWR
Nature of the test: Inhibition of TAOK2 (unknown origin) at 10 uM after 120 mins P33 radiolabeled kinase activity assay.

Test [9] concerns the target Dual specificity tyrosine-phosphorylation-regulated kinase 1A (Homo sapiens) (UniProt Q13627). As to the kind of experiment: Inhibition of DYRK1 (unknown origin) at 10 uM after 120 mins P33 radiolabeled kinase activity assay.
In test [10] the target is Receptor-interacting serine/threonine-protein kinase 2 (Homo sapiens, UniProt O43353). As to the kind of experiment: Inhibition of full-length FLAG-6His-TEV tagged human RIP2 expressed in Sf9 cells assessed as reduction in autophosphorylation pre-incubated for 30 mins followed by incubation with ATP for 2 hrs by ADP-Glo assay. In general terms: ADP-Glo first removes unused ATP, then detects ADP through luciferase.

Test [11] addresses Fibroblast growth factor receptor 4 (Homo sapiens) (UniProt P22455). As to the kind of experiment: Inhibition of FGFR4 (unknown origin) at 10 uM after 120 mins P33 radiolabeled kinase activity assay.
The target in test [12] is Serine/threonine-protein kinase PAK 3 (Homo sapiens) (UniProt O75914). As to the kind of experiment: Inhibition of PAK3 (unknown origin) at 10 uM after 120 mins P33 radiolabeled kinase activity assay.

Broadly, the inhibition is the relative decrease from the control value, in per cent. As a reminder, the IC50 is the point on the concentration scale where inhibition reaches its midpoint.

Sequence of CDK1/Cyclin E (Homo sapiens) (P06493 whole entry, looked up): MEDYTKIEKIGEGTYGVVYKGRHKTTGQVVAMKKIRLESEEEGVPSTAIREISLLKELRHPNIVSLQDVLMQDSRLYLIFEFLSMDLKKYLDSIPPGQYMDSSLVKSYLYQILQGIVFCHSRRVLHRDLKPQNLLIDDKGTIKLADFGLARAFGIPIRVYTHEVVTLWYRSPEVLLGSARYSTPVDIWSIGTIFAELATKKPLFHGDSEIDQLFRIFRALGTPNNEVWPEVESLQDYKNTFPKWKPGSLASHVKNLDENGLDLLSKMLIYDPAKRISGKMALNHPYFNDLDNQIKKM
Sequence of CDK1/Cyclin E (Homo sapiens) (P24864 whole entry, looked up): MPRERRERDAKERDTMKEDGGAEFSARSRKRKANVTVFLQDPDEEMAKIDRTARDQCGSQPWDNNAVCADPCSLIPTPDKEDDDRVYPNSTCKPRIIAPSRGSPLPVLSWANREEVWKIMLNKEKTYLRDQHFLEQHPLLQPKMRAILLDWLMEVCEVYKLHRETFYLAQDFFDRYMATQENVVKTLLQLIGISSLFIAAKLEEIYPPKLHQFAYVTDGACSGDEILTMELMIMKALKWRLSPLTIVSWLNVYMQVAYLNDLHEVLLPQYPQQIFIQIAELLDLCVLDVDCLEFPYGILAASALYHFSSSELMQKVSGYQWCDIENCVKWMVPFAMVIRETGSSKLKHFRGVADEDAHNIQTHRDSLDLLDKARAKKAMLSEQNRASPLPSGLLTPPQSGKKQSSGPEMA
Sequence of Serine/threonine-protein kinase SIK3 (Homo sapiens) (Q9Y2K2 whole entry, looked up): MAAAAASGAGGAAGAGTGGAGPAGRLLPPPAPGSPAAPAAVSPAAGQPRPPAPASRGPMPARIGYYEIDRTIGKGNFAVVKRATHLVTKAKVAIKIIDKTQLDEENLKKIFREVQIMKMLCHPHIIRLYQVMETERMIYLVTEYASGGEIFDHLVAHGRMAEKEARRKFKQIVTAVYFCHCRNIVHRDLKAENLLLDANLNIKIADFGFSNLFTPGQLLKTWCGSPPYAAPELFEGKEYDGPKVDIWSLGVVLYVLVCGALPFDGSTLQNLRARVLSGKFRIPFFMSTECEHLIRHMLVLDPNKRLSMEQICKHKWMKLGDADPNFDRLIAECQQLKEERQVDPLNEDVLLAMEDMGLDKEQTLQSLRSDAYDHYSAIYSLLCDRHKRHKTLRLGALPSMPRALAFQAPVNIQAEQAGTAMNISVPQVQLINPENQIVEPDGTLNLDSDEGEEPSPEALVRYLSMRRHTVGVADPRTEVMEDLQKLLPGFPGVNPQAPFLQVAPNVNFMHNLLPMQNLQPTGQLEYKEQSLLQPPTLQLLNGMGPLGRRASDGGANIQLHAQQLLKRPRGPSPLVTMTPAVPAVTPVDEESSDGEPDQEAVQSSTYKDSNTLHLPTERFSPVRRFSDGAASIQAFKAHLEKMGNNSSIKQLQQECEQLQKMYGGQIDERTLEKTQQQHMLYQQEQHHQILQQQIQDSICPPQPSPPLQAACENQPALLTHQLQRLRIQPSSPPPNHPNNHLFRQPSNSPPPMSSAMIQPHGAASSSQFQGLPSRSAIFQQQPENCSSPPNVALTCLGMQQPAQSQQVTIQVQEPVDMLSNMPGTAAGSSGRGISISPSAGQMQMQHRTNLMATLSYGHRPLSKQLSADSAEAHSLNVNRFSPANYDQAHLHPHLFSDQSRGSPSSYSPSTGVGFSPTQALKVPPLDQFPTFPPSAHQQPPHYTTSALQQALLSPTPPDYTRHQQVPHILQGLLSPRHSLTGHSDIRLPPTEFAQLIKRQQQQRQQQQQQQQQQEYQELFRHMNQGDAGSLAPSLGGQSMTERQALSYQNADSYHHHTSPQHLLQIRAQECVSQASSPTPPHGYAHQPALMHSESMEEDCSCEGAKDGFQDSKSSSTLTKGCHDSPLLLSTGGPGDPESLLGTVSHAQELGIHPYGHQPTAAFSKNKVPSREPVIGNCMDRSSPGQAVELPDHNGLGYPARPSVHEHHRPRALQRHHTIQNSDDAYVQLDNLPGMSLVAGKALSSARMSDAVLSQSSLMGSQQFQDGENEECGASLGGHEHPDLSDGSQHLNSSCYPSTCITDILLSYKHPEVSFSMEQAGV
Sequence of Calcium/calmodulin-dependent protein kinase type 1 (Homo sapiens) (Q14012 whole entry, looked up): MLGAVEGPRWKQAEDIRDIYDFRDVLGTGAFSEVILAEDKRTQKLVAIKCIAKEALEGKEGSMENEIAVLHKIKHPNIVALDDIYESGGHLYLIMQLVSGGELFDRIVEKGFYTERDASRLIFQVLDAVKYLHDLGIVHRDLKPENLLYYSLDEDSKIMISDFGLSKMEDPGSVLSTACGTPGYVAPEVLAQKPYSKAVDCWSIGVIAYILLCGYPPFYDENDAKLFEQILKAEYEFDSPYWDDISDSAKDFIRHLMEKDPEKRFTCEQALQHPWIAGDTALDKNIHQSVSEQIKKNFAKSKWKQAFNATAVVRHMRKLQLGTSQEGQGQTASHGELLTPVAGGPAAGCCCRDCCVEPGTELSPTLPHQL
Sequence of Mitogen-activated protein kinase kinase kinase kinase 2 (Homo sapiens) (Q12851 whole entry, looked up): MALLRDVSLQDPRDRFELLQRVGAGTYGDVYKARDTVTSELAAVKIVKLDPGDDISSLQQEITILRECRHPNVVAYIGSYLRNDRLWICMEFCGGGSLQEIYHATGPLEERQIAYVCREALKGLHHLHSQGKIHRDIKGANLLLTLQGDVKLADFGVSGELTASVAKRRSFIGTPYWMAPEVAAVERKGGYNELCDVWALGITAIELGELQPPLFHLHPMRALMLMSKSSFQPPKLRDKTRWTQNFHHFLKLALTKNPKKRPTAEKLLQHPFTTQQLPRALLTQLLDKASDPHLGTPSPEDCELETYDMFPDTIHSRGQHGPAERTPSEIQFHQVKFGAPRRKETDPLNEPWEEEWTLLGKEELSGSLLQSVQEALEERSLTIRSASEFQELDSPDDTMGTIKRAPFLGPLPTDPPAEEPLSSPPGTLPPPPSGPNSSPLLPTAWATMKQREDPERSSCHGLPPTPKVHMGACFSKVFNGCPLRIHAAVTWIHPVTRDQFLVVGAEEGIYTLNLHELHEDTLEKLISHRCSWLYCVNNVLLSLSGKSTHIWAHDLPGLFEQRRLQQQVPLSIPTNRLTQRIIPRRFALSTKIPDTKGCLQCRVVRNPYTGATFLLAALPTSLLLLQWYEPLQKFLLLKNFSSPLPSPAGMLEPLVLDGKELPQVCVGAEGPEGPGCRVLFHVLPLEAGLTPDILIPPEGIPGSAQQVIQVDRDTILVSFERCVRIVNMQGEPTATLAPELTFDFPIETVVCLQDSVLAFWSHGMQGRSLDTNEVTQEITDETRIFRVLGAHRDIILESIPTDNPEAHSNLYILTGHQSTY
Sequence of Serine/threonine-protein kinase PAK 3 (Homo sapiens) (O75914 whole entry, looked up): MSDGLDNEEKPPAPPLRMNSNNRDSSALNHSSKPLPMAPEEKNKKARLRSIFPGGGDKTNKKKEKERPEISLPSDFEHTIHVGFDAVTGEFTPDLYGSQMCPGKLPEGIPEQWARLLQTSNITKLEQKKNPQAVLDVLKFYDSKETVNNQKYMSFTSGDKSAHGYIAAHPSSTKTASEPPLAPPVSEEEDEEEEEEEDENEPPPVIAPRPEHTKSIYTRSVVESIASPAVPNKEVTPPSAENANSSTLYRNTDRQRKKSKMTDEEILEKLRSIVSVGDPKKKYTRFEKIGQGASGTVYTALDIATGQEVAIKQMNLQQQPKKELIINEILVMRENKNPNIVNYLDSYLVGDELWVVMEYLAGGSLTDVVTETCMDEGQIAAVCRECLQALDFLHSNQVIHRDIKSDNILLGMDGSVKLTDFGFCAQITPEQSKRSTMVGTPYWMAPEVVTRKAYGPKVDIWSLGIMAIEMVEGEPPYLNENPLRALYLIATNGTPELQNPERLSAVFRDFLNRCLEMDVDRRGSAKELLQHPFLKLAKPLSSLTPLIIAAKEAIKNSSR
Sequence of MAP kinase-interacting serine/threonine-protein kinase 2 (Homo sapiens) (Q9HBH9 whole entry, looked up): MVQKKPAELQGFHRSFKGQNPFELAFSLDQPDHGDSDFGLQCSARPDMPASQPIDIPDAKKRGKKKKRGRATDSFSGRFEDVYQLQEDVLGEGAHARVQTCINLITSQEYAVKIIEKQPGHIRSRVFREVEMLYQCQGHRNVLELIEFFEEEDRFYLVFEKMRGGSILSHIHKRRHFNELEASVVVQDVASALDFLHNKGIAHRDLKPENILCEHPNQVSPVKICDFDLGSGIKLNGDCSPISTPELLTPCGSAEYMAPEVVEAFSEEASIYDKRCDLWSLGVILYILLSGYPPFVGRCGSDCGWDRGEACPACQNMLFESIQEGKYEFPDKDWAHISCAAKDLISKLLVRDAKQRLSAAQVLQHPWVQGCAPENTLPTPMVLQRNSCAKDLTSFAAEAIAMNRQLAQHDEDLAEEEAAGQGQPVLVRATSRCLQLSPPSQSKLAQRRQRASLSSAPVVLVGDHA
Sequence of Fibroblast growth factor receptor 4 (Homo sapiens) (P22455 22-802 limits assumed): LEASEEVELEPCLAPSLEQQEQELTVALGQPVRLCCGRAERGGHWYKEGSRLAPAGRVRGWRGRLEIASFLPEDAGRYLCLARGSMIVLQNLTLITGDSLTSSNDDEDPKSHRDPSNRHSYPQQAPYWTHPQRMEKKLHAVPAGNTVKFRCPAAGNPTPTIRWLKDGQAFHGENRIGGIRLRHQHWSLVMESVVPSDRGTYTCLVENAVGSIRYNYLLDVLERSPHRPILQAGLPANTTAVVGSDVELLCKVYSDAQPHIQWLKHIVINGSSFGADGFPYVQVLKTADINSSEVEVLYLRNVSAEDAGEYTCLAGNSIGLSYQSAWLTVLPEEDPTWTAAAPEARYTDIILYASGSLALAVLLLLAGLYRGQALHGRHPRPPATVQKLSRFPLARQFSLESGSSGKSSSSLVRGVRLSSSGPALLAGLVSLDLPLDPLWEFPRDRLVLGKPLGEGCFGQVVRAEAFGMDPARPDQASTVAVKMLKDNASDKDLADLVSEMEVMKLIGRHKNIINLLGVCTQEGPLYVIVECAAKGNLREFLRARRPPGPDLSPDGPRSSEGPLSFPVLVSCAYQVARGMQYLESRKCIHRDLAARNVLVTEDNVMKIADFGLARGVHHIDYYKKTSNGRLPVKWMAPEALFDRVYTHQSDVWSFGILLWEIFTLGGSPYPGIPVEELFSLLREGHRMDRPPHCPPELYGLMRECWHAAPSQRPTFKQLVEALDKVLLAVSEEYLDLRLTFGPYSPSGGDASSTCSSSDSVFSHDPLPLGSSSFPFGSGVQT

Turning to `CS(=O)(=O)c1cccc(Nc2nccc(-c3sc(N4CCOCC4)nc3-c3cccc(NS(=O)(=O)c4c(F)cccc4F)c3)n2)c1`, the inhibition was -0.78% in test [1]; 99.2% in [2]; 96.3% in test [3]; 78.3% in test [4]; 99.6% in test [5]; 81.5% in test [6]. Also, the inhibition is -3.43% in test [7]; 77.8% in test [8]; 31.6% in test [9]; 47.3% in test [11]; 53.5% in test [12]. For the same compound, the 50% inhibitory concentration (IC50) in [10] turned out to be 6.3 nM.
As for `CC(C)(C)c1cc(NC(=O)Nc2ccc(Oc3ccncc3)cc2)no1`, the inhibition in test [1] came out at 57.4%; in [2] it was 91.1%; in test [3], 15%; in test [4], 72.2%; in test [5] it was 9.52%; in test [6], 99.2%. Further, the inhibition was -2.07% in test [7]; 96.7% in [8]; 8.89% in [9]; 73.3% in test [11]; 20.6% in test [12]. Further, in test [10], the IC50 was found to be 63 nM.
On to `COCCNC(=O)c1ccc2c(c1)nc(-c1cnc(-c3ccc(Cl)cc3)[nH]1)n2CCOC`, for which the inhibition in test [1] is -3.21%; in test [2], 70%; in test [3], 2.42%; in test [4], -2.74%; in test [5], 6.53%; in [6], 2.19%. The inhibition in test [7] was -0.61%; in test [8], 1.71%; in test [9] it was 9.38%; in [11], 3.75%; in test [12], 18.5%. Further, the half-inhibitory concentration (IC50) in test [10] was 12 nM.
